# Biological target: succinate dehydrogenase (mitochondrial Sdh, complex II) (Bos taurus, UniProt P35720+Q3T189+Q95123)
# Assay: colorimetric mitochondrial complex II activity assay
# Type: biochemical
# succinate dehydrogenase (mitochondrial Sdh, complex II), sequence (P35720 30-169): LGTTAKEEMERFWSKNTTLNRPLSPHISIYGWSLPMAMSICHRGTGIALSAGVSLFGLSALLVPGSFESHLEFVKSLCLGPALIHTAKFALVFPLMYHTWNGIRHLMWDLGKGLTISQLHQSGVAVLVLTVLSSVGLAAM
# succinate dehydrogenase (mitochondrial Sdh, complex II), sequence (Q3T189 29-280): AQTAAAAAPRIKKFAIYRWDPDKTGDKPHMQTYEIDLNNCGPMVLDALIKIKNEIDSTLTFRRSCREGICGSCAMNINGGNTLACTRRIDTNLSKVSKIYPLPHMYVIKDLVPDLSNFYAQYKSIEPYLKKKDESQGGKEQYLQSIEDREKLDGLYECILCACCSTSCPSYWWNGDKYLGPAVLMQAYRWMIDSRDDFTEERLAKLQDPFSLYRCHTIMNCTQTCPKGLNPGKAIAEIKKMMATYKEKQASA
# succinate dehydrogenase (mitochondrial Sdh, complex II), sequence (Q95123 56-158): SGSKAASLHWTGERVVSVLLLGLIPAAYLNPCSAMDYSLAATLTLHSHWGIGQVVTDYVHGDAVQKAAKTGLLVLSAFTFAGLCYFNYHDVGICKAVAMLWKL
# succinate dehydrogenase (mitochondrial Sdh, complex II), sequence (P31039 44-665 partner): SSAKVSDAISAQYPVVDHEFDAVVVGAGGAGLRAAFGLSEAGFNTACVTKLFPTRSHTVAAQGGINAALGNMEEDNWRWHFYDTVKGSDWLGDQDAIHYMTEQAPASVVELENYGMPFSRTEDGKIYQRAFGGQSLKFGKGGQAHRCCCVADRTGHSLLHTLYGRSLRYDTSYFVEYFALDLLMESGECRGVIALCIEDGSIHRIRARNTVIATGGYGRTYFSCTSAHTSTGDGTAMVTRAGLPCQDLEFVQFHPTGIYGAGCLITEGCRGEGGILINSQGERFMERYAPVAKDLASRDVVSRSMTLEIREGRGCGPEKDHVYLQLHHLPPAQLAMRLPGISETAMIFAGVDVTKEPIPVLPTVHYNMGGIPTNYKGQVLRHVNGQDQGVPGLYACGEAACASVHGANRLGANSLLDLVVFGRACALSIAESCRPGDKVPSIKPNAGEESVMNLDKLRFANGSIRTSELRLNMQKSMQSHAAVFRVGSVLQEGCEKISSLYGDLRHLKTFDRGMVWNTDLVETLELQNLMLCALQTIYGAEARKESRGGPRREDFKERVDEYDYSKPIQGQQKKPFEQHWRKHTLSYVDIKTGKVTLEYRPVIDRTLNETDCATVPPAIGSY
substance,measurement,value
promysalin [(-)-1],IC50,2500 nM
